“Also recorded” adds a separate entry of the source. Where two headings read alike, the source gives them in different places. Non-standard residues stand in square brackets, D forms with d. Residues, ends and D or L forms follow the SMILES beside them. pS = N[C@@H](COP(=O)(O)O)C(=O)O
Experiments:
[1] = system: PNs, Fmr1-KO cerebellar slices; assay: Spontaneous firing of PNs, cell-attached, Fmr1-KO; type: cell-based, mouse; details: 10 μM, co-applied with NBQX (10 μM); Fmr1-KO compared with WT
[2] = system: PNs, WT and Fmr1-KO cerebellar slices; type: cell-based, mouse
[3] = system: BC–PN synapse, WT; assay: sIPSCs from PNs, paired BC–PN recording, WT synapses; type: cell-based, mouse; details: peptide 2.5 mM infused into WT BCs, before and 20 min after; n = 5-6
[4] = system: Kv1.2–FMRP interaction, cerebellar homogenates; assay: Co-IP of Kv1.2 with FMRP (anti-FMRP antibody), peptide blocking; type: binding; details: WT mouse cerebellar homogenates; 250 μM peptide added prior to anti-FMRP antibody; immunoblot; at least in triplicate
Description: Whole cerebellums from WT and Fmr1 KO mice were homogenized in ice-cold Pull-Down buffer (1% Lubrol, 50 mM Tris–HCl, pH 7.4, 10 nM Na-orthovanadate, 30 mM Na-pyrophosphate, 50 mM NaF, 20 μm ZnCl2, and 0.25 mM PMSF, with the addition of protease inhibitor cocktail) using a Potter-Elvehjem grinding chamber (VWR). Samples were then centrifuged at 5000g for 20 min and 500 μL of supernatants were transferred into 1.5 ml Eppendorf tubes. 1:100 dilutions of anti-FMRP (Abcam 17722), anti-Kv1.2 (K14/16; Neuromab), anti-Kv1.2 ext-c (extracellular; Alomone labs), anti-Kv1.2 N-term (NBP1-42802; Novus), or anti-GAPDH (GAPDH-71.1; 1:80,000; Sigma-Aldrich) antibodies were added to the homogenate and incubated at 4 °C under continuous agitation for 2 h. A total 30 μL of a 1:1 mixture of pre-washed protein A and protein G magnabeads (Genscript) was then added and the samples were incubated under the same conditions for another 2 h. Beads were washed 4 times with PBS-Tween (0.2% Tween w/v) and then centrifuged at 3000g for 1 min. A sample was kept to verify total protein input. Protein was disassociated from the beads with the addition of 30 μL of 2× loading buffer (4% SDS, 20% glycerol w/v, 0.1 M dithiothreitol, 100 mM Tris–HCl, pH 6.8) then submitting the samples to 3 min at 95 °C. […] Bands were quantified as previously described using the AlphaEase SA software. […]

[5] = target: T1, recombinant full-length FMRP (isoform 1) (Homo sapiens, UniProt Q06787); assay: In vitro intrinsic protein fluorescence binding assay; details: for change of fluorescence emission spectrum of FMRP (binding): 500–1000 μM peptide and 1 μM FMRP, 100 mM NaCl, 50 mM Na2PO4 pH 7.4, 2 mM DTT, 20 °C, excitation 287 nm; for co-operativity of binding to dimeric FMRP: fit of binding data to dimer models; for Kd: 1 μM FMRP, pH 7.4, 20 °C
T1 construct: containing cDNA for full-length human FMRP; His-SUMO (N, cleaved yes); made in house; host or cells: Escherichia coli BL21 (DE3) Codon Plus
Description: Small Ubiquitin-like Modifier (SUMO) fusion construct containing cDNA for full-length human FMRP was generated by gene synthesis (GenScript USA Inc.) and subcloned into a pET SUMO vector (Invitrogen). […] The pET SUMO–FMRP construct was transformed into Escherichia coli BL21 (DE3) Codon Plus cells and grown at 37 °C in Lennox broth medium. Protein expression was induced with 0.5 mM isopropyl-β-D-thiogalactopyranoside when optical density reached ~0.6, followed by 18 h of additional growth at 16 °C. Cells were harvested by centrifugation and pellets stored at −20 °C. In order to purify SUMO–FMRP, thawed pellets were resuspended in lysis buffer [50 mM Tris, pH 8.0, 500 mM NaCl, 20 mM imidazole, 10% glycerol, 250 mM arginine, 5 mM benzamidine, and 2 mM dithiothreitol (DTT)], supplemented with DNAse 1 and cOmplete™ Protease Inhibitor Cocktail (Sigma-Aldrich). After cell lysis and centrifugation, the filtered supernatant was loaded onto a 20 ml NiNTA column equilibrated in the same lysis buffer. The column was extensively washed with 20 column volumes (CV) of the same buffer supplemented with 100 mM imidazole. Elution of SUMO-fusion FMRP was performed using 100–500 mM imidazole gradient, and protein-containing fractions were combined and a 6× His tagged Ulp protease was added. Cleavage of the His-SUMO tag was performed overnight in a cold room (7 °C) while dialyzing in 4 L of 50 mM Tris, pH 8.0, 500 mM NaCl, 50 mM imidazole, 10% glycerol, 250 mM arginine, 5 mM benzamidine, and 2 mM DTT. Complete cleavage of the SUMO tag by Ulp was confirmed by SDS-PAGE and the protein of interest was separated from the Ulp protease and SUMO tag by passing the cleavage reaction over a second NiNTA column. Flow-through and wash fractions containing protein of interest were combined and then loaded onto a Superdex 200 gel filtration column pre-equilibrated with the same lysis buffer.
The eluted purified proteins were analyzed by both SDS-PAGE and mass spectrometry, and the combined fractions were dialyzed three times in 5 L of Fluorescence Binding Buffer (100 mM NaCl, 50 mM Na2PO4 pH 7.4, 2 mM DTT). After filtering through a 0.22 μm GV Durapore Centrifugal Filter Unit (Millipore), FMRP concentration was determined by absorbance at 280 nm using a molar extinction coefficient of 48,360 M^−1 cm^−1, and the protein was used for binding studies with Kv1.2 C-terminal peptides.
All measurements were carried out in the Fluorescence Binding Buffer at 20 °C using a PTI Quanta Master 80 Spectrofluorometer (HORIBA Scientific) by monitoring intrinsic protein fluorescence with an excitation wavelength of 287 nm. Prior to performing a binding titration for any of the peptides, a full emission spectrum (300–450 nm) of the peptide:FMRP complex was compared to that of apo-FMRP. Differences in the spectrum of the complex (500–1000 μM peptide and 1 μM FMRP) and apo-FMRP at the same concentration (i.e., fluorescence quenching, enhancement or shifts of the emission maximum) indicated binding. For each of these peptides, binding measurements were performed by adding aliquots of saturated 1 µM FMRP:peptide complex (titration solution) to 400 μL of 1 μM apo-FMRP solution as described by Wells and Di Cera. Briefly, at each titration step, a volume vD was removed from the cuvette containing the apo-FMRP and replaced by an equal volume of the titration solution (1 μM FMRP: 200–500 μM peptide complex). As a result, the concentration of FMRP (1 μM) and total volume of solution in the cuvette, V = 400 μL, remained constant while the concentration of the peptide at the ith titration step, [peptide]i, was increased, and given by
[peptide]i = [peptide]0^i.D^i+[peptide]∞^i.(1 − D^i),
where, [peptide]0 was the initial peptide concentration in the cuvette, [peptide]∞ was the peptide concentration in the titration solution, and D was the dilution factor, D = (V − vD)/V. […]

## CN1CCc2cc3c(cc2[C@H]1[C@@H]1OC(=O)c2c1ccc1c2OCO1)OCO3 [bicuculline]
[1]
  difference in PN firing rates between WT and KO: the differences in PN firing rates were abolished
[2]; 10 μM, holding −60 mV
  elimination of IPSC events: eliminated all the events

## NC1=N[C@H](O)[C@H]2[C@H]3O[C@]4(O)O[C@@H]([C@@H](O)[C@@]2(N1)[C@@H]4O)[C@]3(O)CO [TTX, tetrodotoxin]
[2]
  amplitude and frequency of mIPSCs, WT versus KO: the amplitude and frequency of mIPSCs became indistinguishable between the two groups

## PKIPSSPDLKKSRSASTISKSD [Kv436-457]
[3]
  amplitude and frequency of sIPSCs: but not the non-phosphorylated or scrambled phosphorylated peptide, significantly elevated the amplitude and frequency of sIPSCs
[4]
  inhibition of Kv1.2–FMRP binding (co-IP): Neither the non-phosphorylated peptide with the identical sequence (Kv436-457, ^436PKIPSSPDLKKSRSASTISKSD^457) nor the doubly-phosphorylated scrambled peptide (IKPSTLSDSRAKpSSDPpSKPSIK) inhibited the Kv1.2–FMRP binding activity
[5]; listed as non-phosphorylated
  change of fluorescence emission spectrum of FMRP (binding): no change in the fluorescence emission spectrum of FMRP
[5]; listed as non-phosphorylated Kv1.2 C-terminal peptide
  change of fluorescence emission spectrum of FMRP (binding): no binding

## CC[C@H](C)[C@H](NC(=O)[C@@H](NC(=O)[C@H](CO)NC(=O)[C@H](C)NC(=O)[C@H](CO)NC(=O)[C@H](CCCNC(=N)N)NC(=O)[C@H](CO)NC(=O)[C@H](CCCCN)NC(=O)[C@H](CCCCN)NC(=O)[C@H](CC(C)C)NC(=O)[C@H](CC(=O)O)NC(=O)[C@@H]1CCCN1C(=O)[C@H](COP(=O)(O)O)NC(=O)[C@H](CO)NC(=O)[C@@H]1CCCN1C(=O)[C@@H](NC(=O)[C@H](CCCCN)NC(=O)[C@@H]1CCCN1)[C@@H](C)CC)[C@@H](C)O)C(=O)N[C@@H](CO)C(=O)N[C@@H](CCCCN)C(=O)N[C@@H](CO)C(=O)N[C@@H](CC(=O)O)C(=O)O [pS441] (H-PKIPS[pS]PDLKKSRSASTISKSD-OH; N-terminus and C-terminus assumed)
[5]
  change of fluorescence emission spectrum of FMRP (binding): significant spectral changes; also recorded: phosphorylation-mediated interaction
  co-operativity of binding to dimeric FMRP: without cooperativity; also recorded: did not produce co-operative binding effects
  reduced χ2 of fit, model D1: 10
  χ2 of fit, model D1: 106
  reduced χ2 of fit, model D2i: 11
  χ2 of fit, model D2i: 107
[5]; FMRP dimer models
  binding affinity relative to the other phospho-peptides: did bind with similar affinities
[5]; model D2c
  fit to D2c model: could not be fitted to the D2c model
[5]; models D1 and D2i versus KD1 of pS440 (D2c)
  KD tighter than the KD1 of pS440: ~ 5 fold
[5]; models D1 and D2i versus KD2 of pS440 (D2c)
  KD weaker than the KD2 of pS440: ~ 15 fold

## CC[C@H](C)[C@H](NC(=O)[C@@H](NC(=O)[C@H](CO)NC(=O)[C@H](C)NC(=O)[C@H](CO)NC(=O)[C@H](CCCNC(=N)N)NC(=O)[C@H](CO)NC(=O)[C@H](CCCCN)NC(=O)[C@H](CCCCN)NC(=O)[C@H](CC(C)C)NC(=O)[C@H](CC(=O)O)NC(=O)[C@@H]1CCCN1C(=O)[C@H](COP(=O)(O)O)NC(=O)[C@H](COP(=O)(O)O)NC(=O)[C@@H]1CCCN1C(=O)[C@@H](NC(=O)[C@H](CCCCN)NC(=O)[C@@H]1CCCN1)[C@@H](C)CC)[C@@H](C)O)C(=O)N[C@@H](CO)C(=O)N[C@@H](CCCCN)C(=O)N[C@@H](CO)C(=O)N[C@@H](CC(=O)O)C(=O)O [PhosKv436-457] (H-PKIP[pS][pS]PDLKKSRSASTISKSD-OH)
[5]; model D1: dimer with one binding site, read-out: KD1, model D1
  Kd: 10.1 ± 4.4 µM
[5]; model D2i: dimer with two independent binding sites, read-out: KD1, model D2i
  Kd: 1.08 ± 0.26 µM

## CC[C@H](C)[C@H](NC(=O)[C@@H](NC(=O)[C@H](CO)NC(=O)[C@H](C)NC(=O)[C@H](CO)NC(=O)[C@H](CCCNC(=N)N)NC(=O)[C@H](CO)NC(=O)[C@H](CCCCN)NC(=O)[C@H](CCCCN)NC(=O)[C@H](CC(C)C)NC(=O)[C@H](CC(=O)O)NC(=O)[C@@H]1CCCN1C(=O)[C@H](CO)NC(=O)[C@H](COP(=O)(O)O)NC(=O)[C@@H]1CCCN1C(=O)[C@@H](NC(=O)[C@H](CCCCN)NC(=O)[C@@H]1CCCN1)[C@@H](C)CC)[C@@H](C)O)C(=O)N[C@@H](CO)C(=O)N[C@@H](CCCCN)C(=O)N[C@@H](CO)C(=O)N[C@@H](CC(=O)O)C(=O)O [pS440] (H-PKIP[pS]SPDLKKSRSASTISKSD-OH; N-terminus and C-terminus assumed)
[5]
  change of fluorescence emission spectrum of FMRP (binding): significant spectral changes; also recorded: phosphorylation-mediated interaction
  co-operativity of binding to dimeric FMRP: with cooperativity; also recorded: binds dimeric FMRP in a co-operative mechanism
  reduced χ2 of fit, model D1: 11.6
  χ2 of fit, model D1: 92.8
  reduced χ2 of fit, model D2i: 2.3
  χ2 of fit, model D2i: 16.4
[5]; model D2c
  enhancement of binding affinity of second ligand by binding of the first: ~ 80 fold
  reduced χ2 of fit, model D2c: 0.16
  χ2 of fit, model D2c: 0.99
